In EP0583821A1, “Atriopeptins, guanylate cyclase activators, and phosphodiesterase inhibitors as treatment for glaucoma, hydrocephalus and cerebral edema (cranial fluid volume dysfunction)” (THE GENERAL HOSPITAL CORPORATION, priority 1987, dated 1988):

Key:
rabbits = assay: Intraocular pressure and ocular observations after topical (eye drop) application; format: in vivo, rabbit
Description: The measurement of intraocular pressure (IOP), was performed using procedures similar to those described in Nathanson, Brit. J. Pharmacol., 73:97 (1981) and Nathanson, Current Eye Res., 4:191 (1985). Briefly, male (3-5 kg), New Zealand white rabbits were housed under standard conditions and exposed to a 12 hr light-dark cycle. IOP was measured with a Perkins applanation tonometer after topical anesthesia with 0.4% benoxinate (and 0.25% sodium fluorescein). The tonometer had been calibrated previously by connecting the anterior chamber of enucleated rabbit eyes to a manometer (and reservoir) and taking tonometer readings at different pressures. A number of preliminary IOP readings were made in order to accommodate the animals to the measurement procedure. Readings were then taken just prior to drug or vehicle injection and at 3, 9, 20, 27, 44, 51, 72, and 144 hours post-injection.
A potent PDE inhibitor of the arylxanthine class, 1,3-dibutylxanthine, was applied unilaterally and topically to rabbit eyes in a 0.5% solution. […] The IOP was decreased 4 mm (Hg) in the ipsilateral eye (Figure 8).
(§1) Again there was about a 4 mm (Hg) decrease in intraocular pressure. […] This xanthine inhibited the enzyme with an IC₅₀ (concentration necessary for 50% enzyme inhibition) of 25 uM.
The effect of nitroglycerine eye drops on rabbit intraocular pressure was also measured. The IOP of 8 conscious, male albino rabbits (3-4 kg) was measured by applanation pnumatonometry after topical anesthesia with 0.4% benoxinate. Nitroglycerine in phosphate buffered saline, pH 7.4, was given unilaterally, in two 25µl drops spaced five minutes apart. Blood pressure and pulse rate were measured by a photoelectric detector using an automated external tail cuff. […] By 24 hours, pressure had returned to normal.

guanylate cyclase [1] = assay: Ciliary process guanylate cyclase activity (Tables 2 and 3); format: biochemical; details: Table 3; concentration not given
cGMP phosphodiesterase = assay: Inhibition of cGMP phosphodiesterase in ciliary process; format: biochemical; details: Fig. 9B, read-out: IC₅₀ (concentration necessary for 50% enzyme inhibition)
Text: The ability of any compound to inhibit cGMP phosphodiesterase (PDE) activity in broken-cell preparations of choroid epithelial cells or ciliary process can be determined either 1) by measuring the decrease in rate of hydrolysis of an added amount of cyclic GMP by PDE (see, Methods Section of Nathanson et al., Mol. Pharmacol. 12:390-398 (1975)), or 2) by measuring the rate of accumulation of one of the breakdown products of cyclic GMP, such as 5'-GMP or guanosine (see method of Filburn et al., Anal. Biochem. 52:505-516 (1973)). Both of these are herein incorporated by reference.
as §1

adenylate cyclase = assay: Adenylate cyclase activity in P1 fractions of whole choroid; format: biochemical, rabbit; details: rANP at high concentrations
Description: The effect of rANP on membrane-bound guanylate cyclase and adenylate cyclase activity in various brain-barrier tissues and tissue fractions from rabbit was compared with its activity in cerebrum and cerebellum. Guanylate cyclase was measured as the rate of cyclic GMP formation by modifications of the technique of Waldman et al., supra, incorporated herein by reference. Briefly, tissues were homogenized (10 mg wet weight per milliliter) in 50 mM tris-HCl, pH 8.0, 1 mM EDTA, 1 mM dithiothreitol, and 250 mM sucrose and centrifuged at 100,000g to obtain a P1 pellet. Reaction tubes contained (in 0.3 ml), 50 mM tris, pH 7.6, 6 mM MnCl₂, 0.5 mM 3-isobutyl, 1-methylxanthine (IBMX), 10 mM theophylline, 3 mM GTP, hormone (in 0.03 ml containing 2.5 mM ascorbic acid and 0.1% bovine serum albumin), and 0.06 ml of P1 fraction (40 to 60 ug of protein). The reaction (4 minutes at 30°C) was started by addition of GTP and terminated by addition of 0.3 ml of 150 mM sodium acetate (pH 4.0) and boiling for 3 minutes. Cyclic GMP formed was subsequently measured by radioimmunoassay as described in example 6, infra. Under these conditions, guanylate cyclase activity was linear with time and tissue concentration. Adenylate cyclase activity in P1 fractions was measured according to the method described by Nathanson, et al., Science; 204:843 (1979); Mol. Pharmacol. 18:199 (1980), see Figure 1C . […] Neurosci. […]

guanylate cyclase [2] = biological target: T1, guanylate cyclase (Oryctolagus cuniculus, UniProt G1TXB5); assay: Atriopeptin-activated guanylate cyclase in ciliary process membrane (P1) fractions; format: biochemical, rabbit; set-up: tissues were homogenized (10 mg wet weight per milliliter); from tissue; host or cells: rabbit cerebral microvessels, choroid plexus, kidney, ciliary process, pia-arachnoid, cerebellum; 100,000 g P1 pellet; details: mean ± range of duplicate determinations
T1 sequence (G1TXB5 28-1056): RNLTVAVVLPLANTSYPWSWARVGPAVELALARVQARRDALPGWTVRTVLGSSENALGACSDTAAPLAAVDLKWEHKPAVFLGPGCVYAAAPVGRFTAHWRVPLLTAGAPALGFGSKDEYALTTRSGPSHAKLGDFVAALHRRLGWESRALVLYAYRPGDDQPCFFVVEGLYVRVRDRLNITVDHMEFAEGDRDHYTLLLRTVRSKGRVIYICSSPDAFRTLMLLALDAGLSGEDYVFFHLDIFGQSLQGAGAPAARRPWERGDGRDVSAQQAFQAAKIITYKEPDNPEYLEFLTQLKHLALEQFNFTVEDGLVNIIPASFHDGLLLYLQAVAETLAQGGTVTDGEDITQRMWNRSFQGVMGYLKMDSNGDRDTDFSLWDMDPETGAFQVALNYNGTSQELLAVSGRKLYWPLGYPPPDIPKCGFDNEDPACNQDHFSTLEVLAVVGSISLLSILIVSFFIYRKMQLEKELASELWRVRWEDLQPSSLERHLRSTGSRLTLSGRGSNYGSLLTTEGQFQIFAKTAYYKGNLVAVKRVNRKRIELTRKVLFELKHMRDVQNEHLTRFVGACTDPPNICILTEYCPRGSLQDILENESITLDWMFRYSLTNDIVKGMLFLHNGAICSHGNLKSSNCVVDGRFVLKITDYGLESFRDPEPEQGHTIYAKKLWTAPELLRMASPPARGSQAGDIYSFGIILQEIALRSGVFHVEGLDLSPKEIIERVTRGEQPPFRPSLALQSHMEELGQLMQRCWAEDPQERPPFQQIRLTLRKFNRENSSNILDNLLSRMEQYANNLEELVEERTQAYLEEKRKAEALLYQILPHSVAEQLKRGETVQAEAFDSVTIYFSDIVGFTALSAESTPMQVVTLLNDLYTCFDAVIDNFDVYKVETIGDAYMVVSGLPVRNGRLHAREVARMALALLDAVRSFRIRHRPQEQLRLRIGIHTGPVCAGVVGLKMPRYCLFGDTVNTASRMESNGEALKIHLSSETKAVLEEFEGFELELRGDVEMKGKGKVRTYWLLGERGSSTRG
Description: Ciliary process tips were obtained from male, 3-4 kg, New Zealand white rabbits, immediately following sacrifice with an overdose of ether, as described in Nathanson, Invest. Ophthal. Vis. Sci., 21:7981 (1982). The tissue was minced and homogenized (10 mg/ml) by hand in a glass-glass homogenizer in a buffer consisting of 50 mM Tris HCl, pH 8.0; 1mM EDTA, and 250mM sucrose. The homogenate was diluted 30-fold with buffer and centrifuged at 100,000 x g, to obtain a P1 fraction. The pellet was rehomogenized in the original volume and left on ice until use. P1 fractions were also prepared from wedges of rabbit kidney taken from the same animals. In some experiments, P1 fractions were prepared from iris and from ciliary body, as described in Nathanson, Proc. Natl. Acad. Sci. USA, 77:7420 (1980). Briefly, iris was removed from its attachment to the ciliary body, cleaned of adhering ciliary process tissue, washed, and homogenized as above. The ciliary muscle was cleaned of most remaining ciliary process tissue, freed from the underlying sclera by blunt and sharp dissection, and then washed and homogenized.
(§2) Atriopeptin-activated guanylate cyclase activity was measured as the rate of conversion of GTP to cyclic GMP. […]
For RIA, each tube contained (in 0.5ml), 50mM sodium acetate buffer (pH 6.2), 2mM EDTA, 1mg/ml bovine serum albumin, 0.1 ml of sample (or diluted sample), 8,000-15,000 cpm (about 5 fmole) of ¹²⁵I succinyl cyclic GMP tyrosine methyl ester, and antibody to bind 25-35% of the label. […] Activation constants (Ka) were determined from dose-response curves utilizing 12-14 data points (6-7 concentrations of hormone, in duplicate), each point representing the mean of triplicate RIA determinations.
Atriopeptin-activated guanylate cyclase activity was measured, as described in Example 5, in membranes from rabbit kidney and ciliary process prepared as in Example 4. […]

guanylate cyclase [3] = biological target: T1, guanylate cyclase; assay: Atriopeptin-activated guanylate cyclase in kidney membrane (P1) fractions; format: biochemical, rabbit; set-up: tissues were homogenized (10 mg wet weight per milliliter); from tissue; host or cells: rabbit cerebral microvessels, choroid plexus, kidney, ciliary process, pia-arachnoid, cerebellum; 100,000 g P1 pellet; details: mean ± range of duplicate determinations
Description: The effect of rANP on membrane-bound guanylate cyclase and adenylate cyclase activity in various brain-barrier tissues and tissue fractions from rabbit was compared with its activity in cerebrum and cerebellum. Guanylate cyclase was measured as the rate of cyclic GMP formation by modifications of the technique of Waldman et al., supra, incorporated herein by reference. Briefly, tissues were homogenized (10 mg wet weight per milliliter) in 50 mM tris-HCl, pH 8.0, 1 mM EDTA, 1 mM dithiothreitol, and 250 mM sucrose and centrifuged at 100,000g to obtain a P1 pellet. Reaction tubes contained (in 0.3 ml), 50 mM tris, pH 7.6, 6 mM MnCl₂, 0.5 mM 3-isobutyl, 1-methylxanthine (IBMX), 10 mM theophylline, 3 mM GTP, hormone (in 0.03 ml containing 2.5 mM ascorbic acid and 0.1% bovine serum albumin), and 0.06 ml of P1 fraction (40 to 60 ug of protein). The reaction (4 minutes at 30°C) was started by addition of GTP and terminated by addition of 0.3 ml of 150 mM sodium acetate (pH 4.0) and boiling for 3 minutes. Cyclic GMP formed was subsequently measured by radioimmunoassay as described in example 6, infra. Under these conditions, guanylate cyclase activity was linear with time and tissue concentration. Adenylate cyclase activity in P1 fractions was measured according to the method described by Nathanson, et al., Science; 204:843 (1979); Mol. Pharmacol. 18:199 (1980), see Figure 1C . […] Neurosci. Abstr., 10, 899 (1984); Nathanson, et al., Soc. Neurosci. Abstr., 12, 1257 (1986), incorporated herein by reference, but with a lower concentration (0.025%) of trypsin and a rotating tissue tumbler which allowed cleaner fractionation of epithelial cells from erythrocytes and vascular components.
Ciliary process tips were obtained from male, 3-4 kg, New Zealand white rabbits, immediately following sacrifice with an overdose of ether, as described in Nathanson, Invest. Ophthal. Vis. Sci., 21:7981 (1982). […]
as §2

For `CCCCn1c(=O)c2[nH]cnc2n(CCCC)c1=O` [1,3-dibutylxanthine], the “IOP in the contralateral eye” value (rabbits; 0.5% solution, unilateral topical) was “small decrease” and the “decrease of IOP in the ipsilateral eye” value (rabbits; 0.5% solution, unilateral topical, rabbit eyes) was 4 mm (Hg).

sodium nitrate [COMPOUND "N"] was tested, and the “effect on IOP” value (rabbits; 0.1% eye drop preparation, rabbits) was “lowers IOP” and the “CILIARY PROCESS GUANYLATE CYCLASE ACTIVITY (Percent Increase)” value (guanylate cyclase [1]) was 46 Percent Increase.

`CC(C)Cn1c(=O)n(C)c(=O)c2[nH]cnc21` [1-methyl-3-isobutyl-xanthine] was tested, and the “decrease in intraocular pressure” value (rabbits; topical administration, Fig. 9A) was ~4 mm (Hg) and the IC50 (cGMP phosphodiesterase) was 25 µM.

With `CC(C)NCC(O)c1ccc(O)c(O)c1` (stereo not drawn) [isoproterenol] the “effect on adenylate cyclase activity” value (adenylate cyclase) was “stimulated”.

For “rANP 1-11 (SLRRSSCFGGR; Atrial natriuretic peptide; UniProt P01161 123-133, looked up, fragment)”, the “Vmax Stimulation (%) of Guanylate Cyclase Ciliary Process” value (guanylate cyclase [2]) was 4 ± 6% and the “Vmax Stimulation (%) of Guanylate Cyclase Kidney” value (guanylate cyclase [3]) was 25 ± 6%.
